Experimental data as given in publication PMC4643674 (Journal of medicinal chemistry, 2013).

Key:
NMDA receptor subtypes = experiment: two-electrode voltage clamp, activity statements without named subtype; type: cell-based; details: receptor subtype not named
P-gp (MDR1) = experiment: MDR1-MDCK permeability assay; type: in vitro ADME, canine; details: dog; for Papp A→B at 120 min, 5 µM / Papp B→A at 120 min, 5 µM: MDCK-MDR1, pH 7.4, Papp; for recovery at 120 min, 5 µM: MDCK-MDR1, pH 7.4, Recovery (%)
[1] = human liver microsomal stability; type: in vitro ADME
[2] = test system: GluN2D receptor mutants (Q801Y, L705F and A752V); experiment: inhibition of mutant GluN2D receptors; type: cell-based; details: mutants vs wild type GluN2D; Figure S1
plasma stability, mouse = type: in vitro ADME; details: two-hour time-course, Figure S2
MDR1-MDCK = MDR1-MDCK permeability assay; type: in vitro ADME, canine; details: A-to-B; 5 µM; 120 minutes
[3] = test system: 42 different ion channels, G-protein coupled receptors, and transporters; experiment: NIMH PDSP primary binding assay; details: 5 µM compound
plasma stability, rat = type: in vitro ADME; details: two-hour time-course, Figure S2
plasma stability, human = type: in vitro ADME; details: two-hour time-course, Figure S2
GluN1/GluN2C = GluN1/GluN2C (Rattus norvegicus, UniProt P35439+Q00961); type: cell-based
GluN1/GluN2B = GluN1/GluN2B (Rattus norvegicus, UniProt P35439+Q00960); type: cell-based
Chain of GluN1/GluN2B (Q00960 27-1482, other chains not shown): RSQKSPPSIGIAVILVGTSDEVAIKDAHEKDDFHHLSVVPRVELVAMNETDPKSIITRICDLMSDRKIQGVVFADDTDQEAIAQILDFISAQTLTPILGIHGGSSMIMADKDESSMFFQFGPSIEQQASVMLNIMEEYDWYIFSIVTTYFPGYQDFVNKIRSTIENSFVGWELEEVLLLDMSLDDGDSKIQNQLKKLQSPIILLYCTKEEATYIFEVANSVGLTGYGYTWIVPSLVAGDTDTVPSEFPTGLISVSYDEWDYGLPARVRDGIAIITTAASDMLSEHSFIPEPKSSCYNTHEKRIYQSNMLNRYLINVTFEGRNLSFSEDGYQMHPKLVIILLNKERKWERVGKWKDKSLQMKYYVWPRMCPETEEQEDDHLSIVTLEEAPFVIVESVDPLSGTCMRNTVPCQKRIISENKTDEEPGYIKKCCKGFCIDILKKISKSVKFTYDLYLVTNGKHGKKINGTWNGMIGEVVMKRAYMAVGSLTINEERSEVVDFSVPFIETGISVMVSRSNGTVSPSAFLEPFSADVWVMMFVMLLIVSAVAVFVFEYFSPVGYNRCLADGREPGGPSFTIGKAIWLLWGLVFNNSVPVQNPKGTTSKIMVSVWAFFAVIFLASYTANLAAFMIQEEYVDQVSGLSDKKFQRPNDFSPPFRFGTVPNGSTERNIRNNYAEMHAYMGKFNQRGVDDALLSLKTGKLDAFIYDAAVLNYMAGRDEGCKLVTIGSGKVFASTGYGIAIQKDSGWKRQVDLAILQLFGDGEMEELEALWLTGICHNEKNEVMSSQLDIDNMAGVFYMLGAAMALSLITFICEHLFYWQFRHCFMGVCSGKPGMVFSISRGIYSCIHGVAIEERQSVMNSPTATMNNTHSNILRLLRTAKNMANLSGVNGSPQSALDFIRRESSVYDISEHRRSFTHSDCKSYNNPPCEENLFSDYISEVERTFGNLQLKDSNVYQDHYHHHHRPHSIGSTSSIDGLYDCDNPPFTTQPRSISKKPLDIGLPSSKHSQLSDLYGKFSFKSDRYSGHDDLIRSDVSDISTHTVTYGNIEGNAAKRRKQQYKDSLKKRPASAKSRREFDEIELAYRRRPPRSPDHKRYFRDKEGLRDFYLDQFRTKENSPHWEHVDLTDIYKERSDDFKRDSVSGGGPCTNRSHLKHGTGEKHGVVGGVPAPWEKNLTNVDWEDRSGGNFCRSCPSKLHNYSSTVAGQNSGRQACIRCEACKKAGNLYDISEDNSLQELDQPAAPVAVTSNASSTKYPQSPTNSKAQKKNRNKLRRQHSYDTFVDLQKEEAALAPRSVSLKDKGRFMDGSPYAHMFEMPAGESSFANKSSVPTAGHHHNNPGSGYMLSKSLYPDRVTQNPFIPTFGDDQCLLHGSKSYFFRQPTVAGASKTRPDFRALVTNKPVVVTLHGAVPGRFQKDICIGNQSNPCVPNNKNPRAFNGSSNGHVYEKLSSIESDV

GluN1/GluN2A = GluN1/GluN2A (Rattus norvegicus, UniProt P35439+Q00959); type: cell-based
Chain of GluN1/GluN2A (Q00959 23-1464, other chains not shown): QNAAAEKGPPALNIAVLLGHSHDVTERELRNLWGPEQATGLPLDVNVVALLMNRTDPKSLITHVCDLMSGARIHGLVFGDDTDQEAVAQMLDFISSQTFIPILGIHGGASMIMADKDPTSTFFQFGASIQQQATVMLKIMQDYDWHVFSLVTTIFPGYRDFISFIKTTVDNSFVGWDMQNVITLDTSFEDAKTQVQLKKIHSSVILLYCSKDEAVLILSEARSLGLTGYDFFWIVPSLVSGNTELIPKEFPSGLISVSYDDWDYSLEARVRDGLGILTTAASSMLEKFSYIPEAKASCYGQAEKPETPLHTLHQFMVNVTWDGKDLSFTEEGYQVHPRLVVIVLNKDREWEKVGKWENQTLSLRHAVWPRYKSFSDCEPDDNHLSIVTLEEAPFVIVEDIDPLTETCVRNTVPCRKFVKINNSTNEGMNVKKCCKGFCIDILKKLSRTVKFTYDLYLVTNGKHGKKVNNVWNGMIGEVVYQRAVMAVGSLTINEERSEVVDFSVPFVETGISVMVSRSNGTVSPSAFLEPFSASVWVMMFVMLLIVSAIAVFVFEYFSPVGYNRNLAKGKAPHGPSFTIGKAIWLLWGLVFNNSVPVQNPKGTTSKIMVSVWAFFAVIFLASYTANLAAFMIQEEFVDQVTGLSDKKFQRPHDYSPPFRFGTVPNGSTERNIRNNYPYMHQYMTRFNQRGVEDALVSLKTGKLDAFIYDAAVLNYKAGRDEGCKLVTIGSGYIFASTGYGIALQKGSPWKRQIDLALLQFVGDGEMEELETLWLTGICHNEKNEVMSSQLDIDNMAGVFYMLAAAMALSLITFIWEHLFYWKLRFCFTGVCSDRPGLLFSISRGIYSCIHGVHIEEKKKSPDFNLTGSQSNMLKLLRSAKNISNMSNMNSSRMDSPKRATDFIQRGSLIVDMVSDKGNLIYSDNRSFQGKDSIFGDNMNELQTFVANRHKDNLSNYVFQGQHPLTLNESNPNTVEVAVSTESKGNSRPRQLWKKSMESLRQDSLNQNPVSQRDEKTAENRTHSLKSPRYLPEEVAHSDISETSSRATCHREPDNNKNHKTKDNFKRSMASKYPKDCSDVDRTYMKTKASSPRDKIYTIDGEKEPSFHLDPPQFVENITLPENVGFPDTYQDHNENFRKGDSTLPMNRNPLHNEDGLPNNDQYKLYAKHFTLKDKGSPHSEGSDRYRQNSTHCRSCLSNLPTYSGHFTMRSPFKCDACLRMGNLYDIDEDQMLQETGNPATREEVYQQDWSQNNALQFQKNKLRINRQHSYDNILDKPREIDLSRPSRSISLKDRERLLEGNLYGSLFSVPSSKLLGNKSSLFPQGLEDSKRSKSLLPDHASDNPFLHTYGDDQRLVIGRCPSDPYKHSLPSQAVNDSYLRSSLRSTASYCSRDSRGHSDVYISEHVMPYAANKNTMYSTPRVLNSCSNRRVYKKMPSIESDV

GluN1/GluN2D [4] = biological target: GluN1/GluN2D (Rattus norvegicus, UniProt P35439+Q62645); type: cell-based
Chain of GluN1/GluN2D (Rattus norvegicus, UniProt P35439+Q62645) (Q62645 28-1323, other chains not shown): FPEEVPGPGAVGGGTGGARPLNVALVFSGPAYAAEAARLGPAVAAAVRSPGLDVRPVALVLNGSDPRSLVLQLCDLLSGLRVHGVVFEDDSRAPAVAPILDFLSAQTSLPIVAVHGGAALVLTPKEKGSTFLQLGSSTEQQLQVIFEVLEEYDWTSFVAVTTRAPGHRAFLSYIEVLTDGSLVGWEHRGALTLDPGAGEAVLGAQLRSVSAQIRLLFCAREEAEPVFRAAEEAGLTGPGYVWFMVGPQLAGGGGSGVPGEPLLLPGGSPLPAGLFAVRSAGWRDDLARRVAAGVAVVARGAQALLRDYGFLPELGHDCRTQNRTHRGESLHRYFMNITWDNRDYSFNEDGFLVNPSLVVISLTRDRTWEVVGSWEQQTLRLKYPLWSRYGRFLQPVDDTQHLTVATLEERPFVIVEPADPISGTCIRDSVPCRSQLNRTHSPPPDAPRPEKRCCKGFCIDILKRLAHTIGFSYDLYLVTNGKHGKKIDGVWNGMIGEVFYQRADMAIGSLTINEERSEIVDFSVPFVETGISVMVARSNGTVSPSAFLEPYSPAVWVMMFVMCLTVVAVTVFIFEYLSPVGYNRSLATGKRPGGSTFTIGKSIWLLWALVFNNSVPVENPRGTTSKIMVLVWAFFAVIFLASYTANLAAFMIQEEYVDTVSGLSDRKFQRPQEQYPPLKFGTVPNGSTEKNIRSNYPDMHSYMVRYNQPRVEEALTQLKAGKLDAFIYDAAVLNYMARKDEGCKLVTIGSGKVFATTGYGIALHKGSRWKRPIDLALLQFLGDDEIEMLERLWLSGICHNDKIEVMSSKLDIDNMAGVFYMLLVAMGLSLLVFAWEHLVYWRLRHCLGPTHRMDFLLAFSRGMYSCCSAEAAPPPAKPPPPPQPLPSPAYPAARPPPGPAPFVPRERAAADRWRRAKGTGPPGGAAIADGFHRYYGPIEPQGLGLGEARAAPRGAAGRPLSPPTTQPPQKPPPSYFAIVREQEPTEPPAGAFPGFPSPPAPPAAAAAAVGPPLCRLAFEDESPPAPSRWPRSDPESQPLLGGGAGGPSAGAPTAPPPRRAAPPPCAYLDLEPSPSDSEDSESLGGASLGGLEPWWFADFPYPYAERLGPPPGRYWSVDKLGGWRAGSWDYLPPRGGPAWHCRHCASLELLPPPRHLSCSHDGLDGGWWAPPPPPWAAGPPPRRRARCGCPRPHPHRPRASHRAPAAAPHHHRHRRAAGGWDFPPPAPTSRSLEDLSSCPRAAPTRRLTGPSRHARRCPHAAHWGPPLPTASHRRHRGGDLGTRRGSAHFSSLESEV

GluN1/GluN2D [5] = biological target: GluN1/GluN2D (Rattus norvegicus, UniProt Q62645); type: cell-based
Chain of GluN1/GluN2D (Rattus norvegicus, UniProt Q62645) (Q62645 28-1323, other chains not shown): as above

GluA3 = GluA3 (Rattus norvegicus, UniProt P19492); experiment: off-target two-electrode voltage clamp, GluA3; type: cell-based; details: read-out: ITEST / ICONTROL (mean ± SEM, %)
Chain of GluA3 (P19492 23-888): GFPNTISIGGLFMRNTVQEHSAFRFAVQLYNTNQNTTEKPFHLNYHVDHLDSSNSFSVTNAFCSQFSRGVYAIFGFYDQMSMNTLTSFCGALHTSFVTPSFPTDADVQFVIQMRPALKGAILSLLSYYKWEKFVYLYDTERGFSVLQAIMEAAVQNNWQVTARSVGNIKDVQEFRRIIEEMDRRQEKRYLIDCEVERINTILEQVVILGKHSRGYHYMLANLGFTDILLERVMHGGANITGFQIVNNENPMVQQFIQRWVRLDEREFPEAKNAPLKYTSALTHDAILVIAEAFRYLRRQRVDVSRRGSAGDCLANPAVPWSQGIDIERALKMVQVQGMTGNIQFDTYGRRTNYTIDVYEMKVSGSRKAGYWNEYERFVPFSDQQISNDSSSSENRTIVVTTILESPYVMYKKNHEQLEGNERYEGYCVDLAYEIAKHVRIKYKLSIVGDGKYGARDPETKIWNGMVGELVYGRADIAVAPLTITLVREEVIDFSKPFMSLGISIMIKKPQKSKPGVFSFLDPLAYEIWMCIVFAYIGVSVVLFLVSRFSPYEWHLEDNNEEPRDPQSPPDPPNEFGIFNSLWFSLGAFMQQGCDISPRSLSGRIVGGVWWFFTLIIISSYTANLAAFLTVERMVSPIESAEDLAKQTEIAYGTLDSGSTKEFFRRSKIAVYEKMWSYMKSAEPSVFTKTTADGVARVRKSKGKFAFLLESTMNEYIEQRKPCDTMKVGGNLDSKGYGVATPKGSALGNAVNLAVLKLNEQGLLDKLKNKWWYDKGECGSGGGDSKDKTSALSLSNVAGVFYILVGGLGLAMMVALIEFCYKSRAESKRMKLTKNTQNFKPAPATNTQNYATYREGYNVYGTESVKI

GluK1 = GluK1 (Rattus norvegicus, UniProt P22756); experiment: off-target two-electrode voltage clamp, GluK1; type: cell-based; details: read-out: ITEST / ICONTROL (mean ± SEM, %)
[6] = human, liver microsomes, pH 7.4

Row | Papp A→B at 120 min, 5 µM (P-gp (MDR1); determination 1, A-to-B) [×10⁻⁶ cm/s] | Papp B→A at 120 min, 5 µM (P-gp (MDR1); determination 1, B-to-A) [×10⁻⁶ cm/s] | Papp A→B at 120 min, 5 µM (P-gp (MDR1); determination 2, A-to-B) [×10⁻⁶ cm/s] | Papp B→A at 120 min, 5 µM (P-gp (MDR1); determination 2, B-to-A) [×10⁻⁶ cm/s] | microsomal CLint at 1 µM [1, 6] [µL/min/mg] | remaining at 0 h, 1 µM [1, 6] [%] | plasma stability (plasma stability, mouse) | effect in primary binding assay [3] | plasma stability (plasma stability, rat) | plasma stability (plasma stability, human) | Compound | also measured
1 | 2.45 | 66.2 | 2.48 | 62.7 | 110 | 100 | minimal degradation | – | minimal degradation | minimal degradation | O=C(CCCO)N1N=C(c2c(-c3ccc(Cl)cc3)c3ccccc3[nH]c2=O)CC1c1ccc(Cl)cc1 (stereo not drawn) [Compound 64, 4-(4-Chlorophenyl)-3-[5-(4-chlorophenyl)-1-(4-hydroxybutanoyl)-4,5-dihydro-1H-pyrazol-3-yl]quinolin-2(1H)-one] | IC50 (GluN1/GluN2C): 1700 nM; efflux ratio at 120 min, 5 µM (P-gp (MDR1); MDCK-MDR1, pH 7.4): 26; Papp B→A at 120 min, 5 µM (P-gp (MDR1); Avg, B-to-A): 64.5 ×10⁻⁶ cm/s; recovery at 120 min, 5 µM (P-gp (MDR1); A-to-B): 43%; recovery at 120 min, 5 µM (P-gp (MDR1); B-to-A): 73%; IC50 (GluN1/GluN2B): 33 µM; IC50 (GluN1/GluN2A): 62 µM; half-life at 1 µM [1, 6]: 13 min; remaining at 0.5 h, 1 µM [1, 6]: 24%; remaining at 1 h, 1 µM [1, 6]: 6.5%; IC50 (GluN1/GluN2D [4]): 690 nM
2 | – | – | – | – | – | – | minimal degradation | minimal effect | minimal degradation | minimal degradation | O=C(O)/C=C/C(=O)N1N=C(c2c(-c3ccc(Br)cc3)c3ccccc3[nH]c2=O)CC1c1ccc(Cl)cc1 (stereo not drawn) [Compound 58, (E)-4-{3-[4-(4-Bromophenyl)-2-oxo-1,2-dihydroquinolin-3-yl]-5-(4-chlorophenyl)-4,5-dihydro-1H-pyrazol-1-yl}-4-oxobut-2-enoic acid] | remaining activity at 3 µM (GluA3): 100 ± 1.1%; remaining activity at 3 µM (GluK1): 100 ± 4.4%

Continued, compound first:

Row | Compound | Papp A→B at 120 min, 5 µM (P-gp (MDR1); determination 1, A-to-B) [×10⁻⁶ cm/s] | Papp B→A at 120 min, 5 µM (P-gp (MDR1); determination 1, B-to-A) [×10⁻⁶ cm/s] | Papp A→B at 120 min, 5 µM (P-gp (MDR1); determination 2, A-to-B) [×10⁻⁶ cm/s] | Papp B→A at 120 min, 5 µM (P-gp (MDR1); determination 2, B-to-A) [×10⁻⁶ cm/s] | microsomal CLint at 1 µM [1, 6] [µL/min/mg] | remaining at 0 h, 1 µM [1, 6] [%] | plasma stability (plasma stability, mouse) | effect in primary binding assay [3] | plasma stability (plasma stability, rat) | plasma stability (plasma stability, human) | also measured
3 | O=C(CCCF)N1N=C(c2c(-c3ccc(Cl)cc3)c3ccccc3[nH]c2=O)CC1c1ccc(Cl)cc1 (stereo not drawn) [Compound 68, 4-(4-Chlorophenyl)-3-[5-(4-chlorophenyl)-1-(4-fluorobutanoyl)-4,5-dihydro-1H-pyrazol-3-yl]quinolin-2(1H)-one] | 4.51 | 9.32 | 3.24 | 9.72 | 40 | 100 | – | – | – | – | activity (in words) (NMDA receptor subtypes): inactive
4 | O=C(O)CCC(=O)N1N=C(c2c(-c3ccc(Cl)cc3)c3ccccc3[nH]c2=O)CC1c1ccc(Cl)cc1 (stereo not drawn) [Compound 26, 4-{5-(4-Chlorophenyl)-3-[4-(4-chlorophenyl)-2-oxo-1,2-dihydroquinolin-3-yl]-4,5-dihydro-1H-pyrazol-1-yl}-4-oxobutanoic acid] | – | 33.4 | – | 17.9 | < 20 | – | minimal degradation | minimal effect | minimal degradation | minimal degradation | effect of mutations on degree of inhibition [2]: significantly reduced the degree of inhibition; Papp, Avg (MDR1-MDCK): 0.47 10^−6cm/s; degradation in human liver microsomes (in words) ([1]; over the 60 minute assay): minimal degradation
5 | O=C(O)CCC(=O)N1N=C(c2c(-c3ccc(Cl)cc3)c3ccccc3[nH]c2=O)C[C@H]1c1ccc(Cl)cc1 [Compound 69] | – | – | – | – | – | – | – | – | – | – | selectivity over other NMDA receptor subunits (GluN1/GluN2D [5]; GluN2D/GluN2C vs other subunits): over 70 fold; fold more potent at GluN2D-containing receptors than the R-enantiomer, 70 (GluN1/GluN2D [5]; S-enantiomer vs R-enantiomer): 11 fold
